These results are taken from BindingDB's records for doi:10.1038/nchembio.2208 (Novartis Pharma, 2016).

Test [1] addresses T1, Kallikrein-7 [37-253,Y180R] (Homo sapiens, UniProt P49862, Y180R).
T1 construct: 37-253
The test is described as follows: Human KLK7 Fluorescence-Lifetime Assay. The following applies: pH 5.6; 25 °C. On the procedure:
The enzyme reaction was initiated by addition of the substrate Ac-[…]PT14)-Glu-NH2 (0.8 μM; Biosyntan, Berlin, Germany, product BS-#7599). Fluorescence-lifetime measurements were conducted on an Ultra Evolution fluorescence lifetime reader (TECAN, M nnedorf, Switzerland). The excitation light source was a semiconductor laser at 405 nm, producing picosecond light pulses with a selected repetition frequency of 10 MHz. The emission was collected through a 450 nm bandpass filter with 25 nm bandwidth. The measurement time per well was set to 1 s, yielding approximately 1,000 counts in the peak channel. The parameters used as assay readout were the mono-exponential lifetimes.

The target in test [2] is T2, Complement factor B [470-764] (UniProt P00751).
T2 construct: 470-764
Nature of the test: Human FB Proteolysis Assay (ELISA C3a). The following applies: pH 7.4; 4 °C. On the procedure: The enzyme reaction was started by addition of C3 diluted in the assay buffer to a final concentration of 1 μM.
Background: ELISA stands for enzyme-linked immunosorbent assay.

Test [3] deals with T3, Complement factor D [24-253] (Homo sapiens, UniProt P00746).
T3 construct: 24-253
Nature of the test: Complement FD Thioesterolysis Assay. The following applies: pH 7.5; 25 °C.

Test [4] deals with T4, Complement factor D [24-253] (Mus musculus, UniProt P03953).
T4 construct: 24-253
T4 sequence (P03953 whole entry): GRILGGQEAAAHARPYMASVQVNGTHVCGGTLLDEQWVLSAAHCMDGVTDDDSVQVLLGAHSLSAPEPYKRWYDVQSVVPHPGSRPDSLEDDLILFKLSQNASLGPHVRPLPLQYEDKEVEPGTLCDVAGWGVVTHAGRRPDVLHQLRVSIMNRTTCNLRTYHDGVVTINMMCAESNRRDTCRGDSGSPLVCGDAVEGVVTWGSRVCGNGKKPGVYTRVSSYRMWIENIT
The test is described as follows: Complement FD Thioesterolysis Assay. The settings on record: pH 7.5; 25 °C.

T1 sequence (P49862 37-253 Y180R): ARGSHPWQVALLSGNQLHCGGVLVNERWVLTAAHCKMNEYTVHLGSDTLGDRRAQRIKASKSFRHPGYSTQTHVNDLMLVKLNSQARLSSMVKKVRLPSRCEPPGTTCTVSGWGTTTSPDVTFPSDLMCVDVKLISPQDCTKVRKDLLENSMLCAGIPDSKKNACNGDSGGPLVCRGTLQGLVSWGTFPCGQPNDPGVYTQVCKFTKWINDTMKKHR
T2 sequence (P00751 470-764): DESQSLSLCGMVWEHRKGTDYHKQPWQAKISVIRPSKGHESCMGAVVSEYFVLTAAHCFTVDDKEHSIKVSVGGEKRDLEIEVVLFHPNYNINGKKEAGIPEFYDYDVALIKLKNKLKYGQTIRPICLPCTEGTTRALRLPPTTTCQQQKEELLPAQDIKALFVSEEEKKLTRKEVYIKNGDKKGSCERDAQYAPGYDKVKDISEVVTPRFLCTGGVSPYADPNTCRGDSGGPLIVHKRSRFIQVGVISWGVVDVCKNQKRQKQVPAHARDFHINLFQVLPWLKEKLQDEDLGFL
T3 sequence (P00746 24-253): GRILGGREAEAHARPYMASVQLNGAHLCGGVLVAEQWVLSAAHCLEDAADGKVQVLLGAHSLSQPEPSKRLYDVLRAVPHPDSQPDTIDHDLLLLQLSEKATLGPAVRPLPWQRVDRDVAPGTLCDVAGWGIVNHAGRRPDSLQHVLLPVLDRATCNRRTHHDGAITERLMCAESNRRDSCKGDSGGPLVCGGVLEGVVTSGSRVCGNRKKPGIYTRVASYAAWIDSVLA

In general, IC50 refers to the point on the concentration scale where inhibition reaches its midpoint. For the molecule `NC(=O)c1nn(CC(=O)N2[C@@H]3C[C@@H]3C[C@H]2C(=O)Nc2cccc(Br)n2)c2ccccc12` [1-(2-((1R,3S,5R)-3-((6-Bromopyridin-2-yl)carbamoyl)-2-azabicyclo[3.1.0]hexan-2-yl)-2-oxoethyl)-1H-indazole-3-carboxamide (7)], in test [1], the IC50 is above 100 µM.
On to `COC(=O)c1ccccc1CNC(=O)N1CCC[C@H]1C(=O)Nc1cccc(OC(F)(F)F)c1` [Methyl (S)-2-((2-((3-(trifluoromethoxy)phenyl)carbamoyl)pyrrolidine-1-carboxamido)-methyl)benzoate (2)], for which the IC50 is 8.7 µM in test [1] and above 100 µM in test [2].
Consider `Cn1cc(NC(=O)N2CCC[C@H]2C(=O)NC(c2ccccc2)c2ccccc2)c2ccccc21` [(S)-N2-benzhydryl-N1-(1-methyl-1H-indol-3-yl)pyrrolidine-1,2-dicarboxamide (5)], for which the IC50 in test [1] is above 100 µM; in test [3] it was 5.8 µM; in test [2], above 100 µM.
`NC(=O)c1cc2cc(OCc3cccc(C(=O)O)c3)ccc2[nH]1` [3-(((2-Carbamoyl-1H-indol-5-yl)oxy)methyl)benzoic acid (4)] returned a half-inhibitory concentration (IC50) in test [2] above 100 µM.
For `COc1ccc(CCNC(=O)[C@@H]2CCCN2C(=O)NCc2cccc3ccccc23)cc1` [(S)-N2-(4-methoxyphenethyl)-N1-(naphthalen-1-ylmethyl)pyrrolidine-1,2-dicarboxamide (1)], the IC50 in test [1] was 0.7 µM; in test [3] it was above 30 µM.
Regarding `C[C@@H](NC(=O)[C@@H]1C[C@H]2C[C@H]2N1C(=O)Cn1nc(C(N)=O)c2ccncc21)c1cccc(Cl)c1F` [1-(2-((1R,3S,5R)-3-(((R)-1-(3-Chloro-2-fluorophenyl)ethyl)carbamoyl)-2-azabicyclo[3.1.0]hexan-2-yl)-2-oxoethyl)-1H-pyrazolo[3,4-c]pyridine-3-carboxamide (6)], the IC50 in test [1] is above 100 µM; in test [4] it was 0.86 µM; in test [2], above 100 µM.
